Measurements reported in paper PMC4789100 (Environment international, 2009).
Values joined by “and” are separate entries in the source; they are usually repeats but may differ in a detail not shown here. Equal values may be shown once. “Also recorded” adds a separate entry of the source. Read-outs that look alike come from different tables or passages of the source.

Key:
[1] = target: T1, sheep placental cytosolic estrogen sulfotransferase (estradiol as substrate) (Ovis aries, UniProt A0ACI6NYW9); assay type: biochemical
T1 sequence (A0ACI6NYW9 1-296): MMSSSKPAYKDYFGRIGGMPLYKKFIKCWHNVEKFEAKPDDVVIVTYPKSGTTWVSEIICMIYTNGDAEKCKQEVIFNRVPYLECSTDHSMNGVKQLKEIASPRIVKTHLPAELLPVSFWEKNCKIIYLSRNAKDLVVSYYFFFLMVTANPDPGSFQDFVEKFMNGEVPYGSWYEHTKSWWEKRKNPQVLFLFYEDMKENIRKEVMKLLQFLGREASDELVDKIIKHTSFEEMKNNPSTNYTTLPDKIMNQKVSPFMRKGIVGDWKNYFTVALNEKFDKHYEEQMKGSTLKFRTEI

expressed human SULT1E1 = conditions: cited from earlier work
[2] = Triclosan sulfonation in placental cytosol with 35S-PAPS; assay type: in vitro ADME, sheep; conditions: sheep, sheep placental cytosol, pH 7.4
sheep placental cytosol = experiment: as above; assay type: in vitro ADME
[3] = tested on: sheep placental microsomes; experiment: Triclosan glucuronidation in placental microsomes with 14C-UDPGA; assay type: in vitro ADME; conditions: 1 μM Triclosan; limit of detection <0.5 pmol/min/mg protein
[4] = cited from earlier work
[5] = estradiol as substrate, mean±S.D., n=3

## O=C(Nc1ccc(Cl)c(Cl)c1)Nc1ccc(Cl)cc1O [2′OH-TCC, 2′-hydroxy-triclocarban]
[1]; read-out: IC50 for inhibition of estradiol sulfonation, 1 nM estradiol
  IC50: 310 ± 40 nM

## Oc1c(Cl)cc(-c2ccc(Cl)c(Cl)c2)cc1Cl [4′OH-CB79, 4-hydroxy-3,3′,4′,5-tetrachlorobiphenyl]
Expressed human SULT1E1; ref Kester et al., 2000
  IC50: 0.2 to 0.6 nM

## C[C@]12CC[C@@H]3c4ccc(O)cc4CC[C@H]3[C@@H]1CC[C@@H]2O [Estradiol, 17-beta-estradiol]
[1]; [5]
  Ki, constant for partial inhibition of estradiol sulfotransferase activity by substrate: 54.7 ± 25.3 nM
  Vmin, plateau low rate at high estradiol concentrations: 12.1±7.7 pmol/min/mg protein
Expressed human SULT1E1; ref Zhang et al.,1998
  Estradiol concentration above which partial substrate inhibition is displayed: above 20 nM

## Oc1cc(Cl)ccc1Oc1ccc(Cl)cc1Cl [Triclosan, 5-chloro-2(2,4-dichlorophenoxy)-phenol]
[2]
  Km at 15 min: 1.14 ± 0.18 µM
Sheep placental cytosol; Triclosan 0.1 to 10 μM, mean±S.D. of three individual samples
  Sulfonation apparent Vmax: 160±26 pmol/min/mg protein
Sheep placental cytosol; conditions of estradiol or estrone sulfonation assay with 1 nM Triclosan
  Fraction of Triclosan that would be sulfonated: less than 0.1%
[3]
  Glucuronidation: not a substrate for glucuronidation; also recorded: no detectable glucuronidation
[4]; Breast milk, Sweden, Control female, ref Allmyr et al., 2006b
  Reported mean concentration of total Triclosan: 0.02 ng/g and 0.07 nM
[4]; Breast milk, Sweden, Exposed female, ref Allmyr et al., 2006b
  Reported mean concentration of total Triclosan: 0.54 ng/g and 1.87 nM
[4]; Serum, Australia, Female 2002, ref Allmyr et al., 2008
  Reported mean concentration of total Triclosan: 14 ng/g and 48.4 nM
[4]; Serum, Australia, Female 2004, ref Allmyr et al., 2008
  Reported mean concentration of total Triclosan: 7.2 ng/g and 24.9 nM
[4]; Serum, Australia, Male 2004, ref Allmyr et al., 2008
  Reported mean concentration of total Triclosan: 12 ng/g and 41.5 nM
[4]; Serum, Sweden, Control female, ref Allmyr et al., 2006b
  Reported mean concentration of total Triclosan: 0.07 ng/g and 0.25 nM
[4]; Serum, Sweden, Exposed female, ref Allmyr et al., 2006b
  Reported mean concentration of total Triclosan: 16 ng/g and 55.3 nM
[4]; Urine, United States, Female, ref Calafat et al., 2008
  Reported mean concentration of total Triclosan: 10.6 μg/L and 36.6 nM
[4]; Urine, United States, Male, ref Calafat et al., 2008
  Reported mean concentration of total Triclosan: 16.2 μg/L and 56.0 nM
